Data reported in patent US20240199630A1, “IMIDAZO[1,2-B]PYRIDAZINE BASED TRICYCLIC COMPOUNDS AS INHIBITORS OF HASPIN AND THERAPEUTIC USES THEREOF” (FUNDACIÓN DEL SECTOR PÚBLICO ESTATAL CENTRO NACIONAL DE …, priority 2021, published 2024).
pEC50, pIC50: −log10 of the molar value.

These molecules were tested against HASPIN (Homo sapiens (Human), UniProt Q8TF76) (assay: HASPIN biochemical assay (ADP-Glo, HASPIN autophosphorylation)). Settings: ATP 150 μM, 60 min at 30° C.
Procedure: HASPIN biochemical Assay: The biochemical assay to measure HASPIN activity relies on the ADP-Glo™ assay kit (Promega) that determines the amount of ADP as direct product of the kinase enzyme activity. Assay conditions were as indicated by the kit manufacturers with the following adaptations for the kinase activity step: Kinase assay buffer and assay volume (15 mM HEPES pH 7.5, 20 mM NaCl, 1 mM EGTA, 0.02% TWEEN 20, 10 mM MgCl2, 0.1 mg/ml BGG)/25 μL assay volume). Incubation time and temperature: 60 min at 30° C. HASPIN final concentration: 0.9 μg/mL. ATP final concentration: 150 μM. HASPIN autophosphorylation was measured. Assays were performed in 384-well plates. The final outcome of the coupled reactions provided by the kit is the release of luciferase and has been measured with a multilabel HTS counter Victor V/Envision. Values were normalized against the control activity included (100% HASPIN activity, without compound). Values were plotted against the inhibitor concentration and fit to a sigmoid dose-response curve using Activity base by IDBS software.

Sequence of HASPIN (Q8TF76 whole entry): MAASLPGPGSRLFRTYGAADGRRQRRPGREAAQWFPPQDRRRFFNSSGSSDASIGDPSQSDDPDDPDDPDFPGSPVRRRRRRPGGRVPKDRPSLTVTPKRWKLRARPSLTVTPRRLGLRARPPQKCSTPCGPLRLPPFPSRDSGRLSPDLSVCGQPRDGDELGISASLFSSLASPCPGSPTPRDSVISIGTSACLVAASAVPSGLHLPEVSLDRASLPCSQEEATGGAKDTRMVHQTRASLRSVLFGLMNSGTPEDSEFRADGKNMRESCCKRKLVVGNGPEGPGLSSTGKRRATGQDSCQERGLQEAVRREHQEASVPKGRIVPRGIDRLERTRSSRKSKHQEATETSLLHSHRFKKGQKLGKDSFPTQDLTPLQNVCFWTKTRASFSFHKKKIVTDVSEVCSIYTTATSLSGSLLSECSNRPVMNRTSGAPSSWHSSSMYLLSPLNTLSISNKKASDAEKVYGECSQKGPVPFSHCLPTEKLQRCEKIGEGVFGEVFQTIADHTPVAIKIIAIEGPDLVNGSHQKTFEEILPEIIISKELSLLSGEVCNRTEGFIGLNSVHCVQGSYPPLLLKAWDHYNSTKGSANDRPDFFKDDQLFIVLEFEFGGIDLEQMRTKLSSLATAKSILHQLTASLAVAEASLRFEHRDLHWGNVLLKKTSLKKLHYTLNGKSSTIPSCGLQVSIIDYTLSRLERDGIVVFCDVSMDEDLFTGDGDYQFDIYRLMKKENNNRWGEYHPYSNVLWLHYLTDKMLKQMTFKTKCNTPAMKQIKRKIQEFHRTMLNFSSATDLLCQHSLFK

| pIC50 | Structure (SMILES) |
| --- | --- |
| 8.20 | Cc1nc2c3c(c(NCC4(F)CCNCC4)nn2c1-c1ccnc(Cl)c1)CC(C)O3 (racemic) [Compound 33, [3-(2-Chloro-pyridin-4-yl)-2,7-dimethyl-6,7-dihydro-8-oxa-1,3a,4-triaza-as-indacen-5-yl]-(4-fluoro-piperidin-4-ylmethyl)-amine] |
| 8.23 | Cc1nc2c3c(c(NCC4(F)CCNCC4)nn2c1-c1ccnc(Cl)c1)C[C@@H](C)O3 (single isomer, unassigned) [Compound 34] |
| 7.68 | Cc1nc2c3c(c(NCC4(F)CCNCC4)nn2c1-c1ccnc(Cl)c1)C[C@H](C)O3 (single isomer, unassigned) [Compound 35] |

These molecules were tested against intracellular HASPIN (phosphorylation of the HASPIN substrate H3T3) (Homo sapiens (Human), UniProt Q8TF76) (assay: Cellular HASPIN inhibition assay (phosphorylation of H3T3), western blot in MV4:11 cells). Settings: 8 hours of treatment, read-out: pH3T3 EC50.
Format: cell-based
Procedure: 10 min. The protein content of the lysates is determined by DC protein assay (Biorad, Ref. 5000116).

Sequence of intracellular HASPIN (phosphorylation of the HASPIN substrate H3T3) (Q8TF76 whole entry): as above

| pEC50 | Structure (SMILES) |
| --- | --- |
| > 7.30 | Cc1nc2c3c(c(NCC4(F)CCNCC4)nn2c1-c1ccnc(Cl)c1)C[C@@H](C)O3 (single isomer, unassigned) [Compound 34] |
| > 7.30 | Cc1nc2c3c(c(NCC4(F)CCNCC4)nn2c1-c1ccnc(Cl)c1)C[C@H](C)O3 (single isomer, unassigned) [Compound 35] |

What follows are molecules tested against PIM1 (Homo sapiens (Human), UniProt P11309) (assay: PIM1 activity, methodology of WO2013/005041). Settings: compounds from the present invention.
Format: biochemical

Sequence of PIM1 (P11309 whole entry, species assumed): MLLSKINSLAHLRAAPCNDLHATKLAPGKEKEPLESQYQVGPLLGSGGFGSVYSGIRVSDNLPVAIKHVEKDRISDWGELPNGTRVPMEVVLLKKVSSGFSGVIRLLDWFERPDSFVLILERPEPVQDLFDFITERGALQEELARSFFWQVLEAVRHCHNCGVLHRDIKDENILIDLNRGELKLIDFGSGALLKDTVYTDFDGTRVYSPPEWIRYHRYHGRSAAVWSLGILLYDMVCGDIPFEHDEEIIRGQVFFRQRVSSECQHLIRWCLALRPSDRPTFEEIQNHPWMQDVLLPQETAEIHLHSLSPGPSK

| pIC50 | Structure (SMILES) |
| --- | --- |
| 5.47 | Cc1nc2c3c(c(N4CCCC(CN)C4)nn2c1-c1ccnc(Cl)c1)CCCO3 (centres unmarked) [Compound 2, C-{1-[3-(2-Chloro-pyridin-4-yl)-2-methyl-7,8-dihydro-6H-9-oxa-1,3a,4-triaza-cyclopenta[a]naphthalen-5-yl]-piperidin-3-yl}-methylamine] |
| < 5.00 | Cc1nc2c3c(c(N4CCC[C@@H](CN)C4)nn2c1-c1ccnc(Cl)c1)CCCO3 [Compound 3, C-{(S)-1-[3-(2-Chloro-pyridin-4-yl)-2-methyl-7,8-dihydro-6H-9-oxa-1,3a,4-triaza-cyclopenta[a]naphthalen-5-yl]-piperidin-3-yl}-methylamine] |
| 5.64 | Cc1nc2c3c(c(N4CCC[C@H](CN)C4)nn2c1-c1ccnc(Cl)c1)CCCO3 [Compound 4, C-{(R)-1-[3-(2-Chloro-pyridin-4-yl)-2-methyl-7,8-dihydro-6H-9-oxa-1,3a,4-triaza-cyclopenta[a]naphthalen-5-yl]-piperidin-3-yl}-methylamine] |
| 5.48 | Cc1nc2c3c(c(NCC4(F)CCNCC4)nn2c1-c1ccncc1)CCCO3 [Compound 6, (4-Fluoro-piperidin-4-ylmethyl)-(2-methyl-3-pyridin-4-yl-7,8-dihydro-6H-9-oxa-1,3a,4-triaza-cyclopenta[a]naphthalen-5-yl)-amine] |
| 5.96 | Cc1nc2c3c(c(NCC4CCNCC4)nn2c1-c1ccnc(Cl)c1)N(C)CCO3 [Compound 10, [3-(2-Chloro-pyridin-4-yl)-2,6-dimethyl-7,8-dihydro-6H-9-oxa-1,3a,4,6-tetraaza-cyclopenta[a]naphthalen-5-yl]-piperidin-4-ylmethyl-amine] |
| 5.74 | Cc1nc2c3c(c(NCCCCO)nn2c1-c1ccnc(Cl)c1)N(C)CCO3 [Compound 12, 4-[3-(2-Chloro-pyridin-4-yl)-2,6-dimethyl-7,8-dihydro-6H-9-oxa-1,3a,4,6-tetraaza-cyclopenta[a]naphthalen-5-ylamino]-butan-1-ol] |
| 5.50 | Cc1nc2c3c(c(N[C@H]4CC[C@@](C)(O)CC4)nn2c1-c1ccncc1)OCCN3C [Compound 27, 4-(2,9-Dimethyl-3-pyridin-4-yl-8,9-dihydro-7H-6-oxa-1,3a,4,9-tetraaza-cyclopenta[a]naphthalen-5-ylamino)-1-methyl-cyclohexanol] |

These molecules were tested on MV4:11 (AML cell line) (assay: Combination viability assay (CellTiter-Glo), Bliss combination index). Settings: MV4:11 cell line, 72 h; agent 1 μM combined with compound 3 at 2 μM; CI<1 synergism.
Procedure: The cells were harvested just before reaching confluency, counted with a haemocytometer and diluted with media. Cells were then seeded in 96-well microtiter plates at a density of 5,000 cells/well. Cells were incubated for 24 hours before adding the compounds. Compounds were weighed out and diluted with DMSO to a final concentration of 10 mM. From here a “mother plate” was prepared at 200X the final concentration in the culture. The final concentration of DMSO in the tissue culture media should not exceed 1%. […] Each compound was assayed in duplicate. Cells were exposed to the compounds for 72 h and then processed for CellTiter-Glo® Luminescent Cell Viability Assay (Promega) read out according to manufacturer's Instruction and read on EndVision (Perkin Elmer). Percentage of viability inhibition was calculated using ActivityBase from IDBS. Potential synergy between drugs was evaluated by calculating the combination index (CI) based on the Bliss Independence model, whereby the CI was calculated with the following equation:
where Ea indicates the viability effect of drug A, Eb indicates the viability effect of drug B and Eab indicates the viability effect of the drug combination. CI<1 indicates synergism, CI=1 indicates additivity and CI>1 indicates antagonism.

| Structure (SMILES) | CI (combination index) |
| --- | --- |
| Cc1nc(NC(=O)N2CCC[C@H]2C(N)=O)sc1-c1ccnc(C(C)(C)C(F)(F)F)c1 [BYL-719, Alpelisib] | 0.59 |
| CC[C@H](Nc1ncnc2[nH]cnc12)c1nc2cccc(F)c2c(=O)n1-c1ccccc1 [CAL-101, IDELALISIB, Idelalisib] | 0.67 |
| CCN(CC)C(=S)SSC(=S)N(CC)CC [Disulfiram] | 0.67 |
| CN(NC(=O)CC(=O)NN(C)C(=S)c1ccccc1)C(=S)c1ccccc1 [ELESCLOMOL, Elesclomol] | 0.78 |
| C#Cc1cccc(Nc2ncnc3cc(OCCOC)c(OCCOC)cc23)c1 [ERLOTINIB, Erlotinib] | 0.62 |
| C[C@]12CC[C@@H]3c4ccc(O)cc4C[C@@H](CCCCCCCCC[S+]([O-])CCCC(F)(F)C(F)(F)F)[C@H]3[C@@H]1CC[C@@H]2O (some centres unmarked) [Fulvestrant] | 0.60 |
| CS(=O)(=O)N1CCN(Cc2cc3nc(-c4cccc5[nH]ncc45)nc(N4CCOCC4)c3s2)CC1 [GDC-0941, Pictilisib] | 0.85 |
| NC1(c2ccc(-c3nc4ccn5c(=O)[nH]nc5c4cc3-c3ccccc3)cc2)CCC1 [MK-2206] | 0.64 |
| Cc1ccc(Nc2nccc(N(C)c3ccc4c(C)n(C)nc4c3)n2)cc1S(N)(=O)=O [Pazopanib] | 0.57 |
| O=C(CCCCCCNC(=O)c1cnc(N(c2ccccc2)c2ccccc2)nc1)NO [Ricolinostat, ACY-1215, Ricolinostat] | 0.69 |
| CC(C)[C@H](O)C(=O)N[C@@H](C)C(=O)N[C@@H]1C(=O)N(C)CCc2ccccc21 [Semagacestat] | 0.53 |
